Results: patent US10905122B2, “Use of tetrazolinones for combating resistant phytopathogenic fungi on cereals” (BASF SE, priority 2016, dated 2021)

Experiments:
Format in all cases: cell-based
[1] = system: QOI resistant isolate of Pyrenophora teres; experiment: Microtiter test against net blotch, QOI resistant isolate of Pyrenophora teres; conditions: Example 1B; 63 ppm; absorption at 405 nm 7 days after inoculation; 18° C.
Description: (§1) Compound I according to the present invention is formulated separately as a stock solution having a concentration of 10000 ppm in dimethyl sulfoxide.
(§2) The stock solution of compound I according to the present invention was mixed according to the ratio, pipetted onto a micro titer plate (MTP) and diluted with water to the stated concentrations. A spore suspension of a sensitive and a QOI resistant isolate of Pyrenophora teres in an aqueous biomalt or yeast-bactopeptone-glycerine solution was then added. The plates were placed in a water vapor-saturated chamber at a temperature of 18° C. Using an absorption photometer, the MTPs were measured at 405 nm 7 days after the inoculation.

[2] = system: sensitive isolate of Pyrenophora teres; experiment: Microtiter test against net blotch, sensitive isolate of Pyrenophora teres; conditions: Example 1B; 63 ppm; absorption at 405 nm 7 days after inoculation; 18° C.
Description: as §1, §2

[3] = system: sensitive isolate of Septoria tritici; experiment: Microtiter test against leaf blotch on wheat, sensitive isolate of Septoria tritici; conditions: 63 ppm, absorption at 405 nm 7 days after inoculation, 18° C.
Procedure: as §1
as §2, with “plate” for “plate (MTP)”, “Septoria tritici” for “Pyrenophora teres”
(§3) Compound I according to the present invention and compound 1-213 from prior art (WO2013/092224) were formulated separately as a stock solution having a concentration of 10000 ppm in dimethyl sulfoxide. The stock solutions of compound I according to the present invention and compound 1-213 from prior art (WO2013/092224) were mixed according to the ratio, pipetted onto a micro titer plate and diluted with water to the stated concentrations. A spore suspension of a sensitive and a QOI resistant isolate of Septoria tritici in an aqueous biomalt or yeast-bactopeptone-glycerine solution was then added. […] Using an absorption photometer, the MTPs were measured at 405 nm 7 days after the inoculation.

[4] = system: QOI resistant isolate of Septoria tritici; experiment: Microtiter test against leaf blotch on wheat, QOI resistant isolate of Septoria tritici; conditions: 63 ppm, absorption at 405 nm 7 days after inoculation, 18° C.
Procedure: as §1
as §2, with “plate” for “plate (MTP)”, “Septoria tritici” for “Pyrenophora teres”
as §3

Cc1cccc(-n2nnn(C)c2=O)c1COc1ccn(-c2ccc(Cl)cc2)n1 [compound I, 1-[2-[[1-(4-chlorophenyl)pyrazol-3-yl]oxymethyl]-3-methyl-phenyl]-4-methyl-tetrazol-5-one]
Growth (%) QOI resistant isolate of Pyrenophora teres [1]: 6% | Growth (%) sensitive isolate of Pyrenophora teres. [2]: 6% | Growth (%) sensitive isolate of Septoria tritici ([3]; Example 1A): 0% | Growth (%) sensitive isolate of Septoria tritici ([3]; Example 2 comparative): 0% | Growth (%) QOI resistant isolate of Septoria tritici ([4]; Example 1A): 3% | Growth (%) QOI resistant isolate of Septoria tritici ([4]; Example 2 comparative): 3%
